Laboratory results as given in patent publication US7182963B2, “Cosmetic and dermopharmaceutical compositions for skin prone to acne” (priority 2001, dated 2007).

Columns and labels:
[1] = system: Corynebacterium minutissimum; test: Antibacterial effect, agar incorporation, strain A; format: cell-based; design: key: ‘+’ = bacterial growth; ‘−’ = no bacterial growth; settings: 24 h (same at 48 h), equivalent to 5% premix
Protocol: (§1) Test Principle and Implementation: 1 mL of the premix in example No. 1 or its constituents at concentrations equivalent to 5% of the premix were incorporated in molten agar medium (BioMérieux) plated in a Petri dish. […] The plates were then incubated at 37° C. for 24 and 48 hours and inspected visually. Five strains, Corynebacterium minutissimum, Propionibacterium acnes, Staphylococcus aureus, Staphylococcus hominis and Acinetobacterium calcoaceticus were studied.

Staphylococcus hominis = test: Antibacterial effect, agar incorporation, strain B; format: cell-based; design: key to bacterial growth, strain B: ‘+’ = bacterial growth; ‘−’ = no bacterial growth; settings: for bacterial growth, strain B: 24 h (same at 48 h), equivalent to 5% premix
Protocol: as §1

Staphylococcus aureus = test: Antibacterial effect, agar incorporation, strain C; format: cell-based; design: key: ‘+’ = bacterial growth; ‘−’ = no bacterial growth; settings: 24 h (same at 48 h), equivalent to 5% premix
Protocol: as §1

P. acnes = test: Antibacterial effect, agar incorporation, strain D; format: cell-based, Propionibacterium acnes; design: key to bacterial growth, strain D: ‘+’ = bacterial growth; ‘−’ = no bacterial growth; settings: for bacterial growth, strain D: 24 h (same at 48 h), equivalent to 5% premix
Protocol: as §1

[2] = system: Acinetobacterium calcoaceticus; test: Antibacterial effect, agar incorporation, strain E; format: cell-based; design: key to bacterial growth, strain E: ‘+’ = bacterial growth; ‘−’ = no bacterial growth; settings: for bacterial growth, strain E: 24 h (same at 48 h), equivalent to 5% premix; for antimicrobial activity: A. calcoaceticus
Protocol: as §1

5α-reductase [3] = test: Inhibition of 5α-reductase, enzymatic assay (NADPH absorbance at 340 nm), in vitro; format: biochemical; settings: for % inhibition: mean±SEM, 5 assays
Protocol: Principle and implementation of the test (adapted from Zy and Zu, 1998):
Testosterone is irreversibly metabolized by 5α-reductase to […] (5-DHT) in the presence of the cofactor NADPH. The reaction is monitored, at 37° C., by determining, using a spectrophotometer, the reduction in the absorbance of the reaction medium at 340 nm, due to the conversion of NADPH to NADP.
The test thus consists in mixing testosterone, NADPH and the test product or its vehicle alone (control reaction). After 3 minutes to allow the system to equilibrate, the baseline absorbance of the system is determined. Then the reaction is triggered by addition of the enzyme, 5α-reductase. After 10 minutes, a second determination of the absorbance, final absorbance, is conducted. The difference between the two measurements reflects the quantity of NADPH consumed. That quantity is proportional to the quantity of testosterone converted to 5-DHT.

5α-reductase [4] = test: Inhibition of 5α-reductase, HPLC determination of testosterone, in vitro; format: biochemical; settings: for % inhibition: mean±SEM, 5 assays
Protocol: Principle and implementation of the test: the aim of this test was to confirm the previous result but using an HPLC analysis method. Unlike 5-DHT, testosterone absorbs light at the wavelength used (245 nm). The decrease in testosterone peak area (which was characterized under our operating conditions by a retention time of 26 minutes) reflects the reduction of the concentration of the compound in the study medium and thus reflects 5α-reductase activity.
The same type of protocol as in the previous example was used, but instead of determining the absorbances, the reaction media were analyzed by HPLC.

[5] = system: interleukin 6 (IL-6) on normal human fibroblasts (HF); test: Anti-inflammatory effect: IL-6 (ELISA) in normal human fibroblasts after UV-B irradiation; format: cell-based; settings: for HF % change (IL-6 vs. tests without UV exposure): UV-B 50 mJ.cm^−2, 24 hours
Protocol: (§2) Principle and test implementation: it is possible to estimate a degree of inflammation by determining the quantity of mediators such as prostaglandins, leukotrienes or interleukins. In this example, we selected assay of interleukin 6 (IL-6) on normal human fibroblasts (HF) and keratinocytes (HK) in culture following exposure to UV-B irradiation. Broadly speaking, the cells were cultured in a conventional culture medium (DMEMc+10% FCS) for periods of 24 hours for HF and 1 week for HK. After elimination of the buffer and 2 successive washings with phosphate buffer solution, the cells were exposed to UV-B irradiation at a standardized energy level of 50 mJ.cm^−2. The buffer was then rapidly eliminated and replaced by the same culture medium as that used at the start of the experiment, but containing the test extracts at the prerequisite concentrations or DMSO for the control series. After 24 hours, the culture medium was harvested and IL-6 concentration determined using a standard ELISA method. An additional series was conducted using the same protocol but without UV-B irradiation in order to determine the baseline level and control the stability of the study system. All the assays were conducted in triplicate.

[6] = system: interleukin 6 (IL-6) on normal human keratinocytes (HK); test: Anti-inflammatory effect: IL-6 (ELISA) in normal human keratinocytes after UV-B irradiation; format: cell-based; settings: for HK % change (IL-6 vs. tests without UV exposure): UV-B 50 mJ.cm^−2, 24 hours
Protocol: as §2

[7] = system: normal human keratinocytes (HK); test: Antiproliferative effect on keratinocytes (DNA quantity, Hoechst 33258); format: cell-based; settings: for % inhibition (quantity of DNA, number of cells): 1 week culture
Description: Test principle and implementation: since the quantity of DNA is constant for each cell, the determination of the overall quantity of DNA is equivalent to measuring the number of cells used for the determination. This principle enables routine use of more refined but very cumbersome methodologies to be avoided. Various methods have been developed on the basis of this protocol, of which, in particular, that used herein. When bound to DNA with a constant and known stereochemistry, the fluorophore, Hoechst 33258, presents, first, increased fluorescence, but also an emission spectrum shift from 492 to 458 nm. By means of comparison with pre-established sets of standards, the concomitant monitoring of the above 2 parameters enables quantification of the quantity of DNA present in the cell samples studied. Broadly speaking, normal human keratinocytes (HK) are cultured in a classic culture medium (DMEMc+10% FCS) for 1 week, in the absence of the test product (control series in order to determine the baseline cell proliferation of the system studied) or in the presence of the test products alone or in combination. Fluorophore Hoechst 33258 was added at the end of the protocol before withdrawing cell aliquots for assay. The assays were conducted in triplicate as 3 mutually independent assays.

[8] = [c] 0.01%, listed as nordihydroguaiaretic acid

Question: Oc1cc(Cl)ccc1Oc1ccc(Cl)cc1Cl [Trichlosan] was tested. Which “bacterial growth, strain A” value ([1]; 10^4 bacteria/mL) did it give?
Answer: −

Question: What about the “bacterial growth, strain A” value ([1]; 10^5 bacteria/mL) of the same compound?
Answer: −

Question: What about the “bacterial growth, strain B” value (Staphylococcus hominis; 10^4 bacteria/mL) of the same compound?
Answer: −

Question: What about the “bacterial growth, strain B” value (Staphylococcus hominis; 10^5 bacteria/mL) of the same compound?
Answer: −

Question: And the “bacterial growth, strain C” value (Staphylococcus aureus; 10^4 bacteria/mL)?
Answer: −

Question: What about the “bacterial growth, strain C” value (Staphylococcus aureus; 10^5 bacteria/mL) of the same compound?
Answer: −

Question: What about the “bacterial growth, strain D” value (P. acnes; 10^4 bacteria/mL) of the same compound?
Answer: −

Question: And the “bacterial growth, strain D” value (P. acnes; 10^5 bacteria/mL)?
Answer: −

Question: What about the “bacterial growth, strain E” value ([2]; 10^4 bacteria/mL) of the same compound?
Answer: −

Question: And the “bacterial growth, strain E” value ([2]; 10^5 bacteria/mL)?
Answer: −

Question: What does the source list for CC(Cc1ccc(O)c(O)c1)C(C)Cc1ccc(O)c(O)c1 (stereo not drawn) [NDGA, nordihydroguaiaretic acid]?
Answer: activity in the test (5α-reductase [3]): no activity; % inhibition (5α-reductase [3]; [c] 0.01%): 2.1 ± 1.6%; % inhibition (5α-reductase [3]; [c] 0.04%): 3.7 ± 2.9%; % inhibition (5α-reductase [3]; [c] 0.1%): 3.0 ± 1.9%; activity in the test (5α-reductase [4]): no activity; % inhibition (5α-reductase [4]; [c] 0.01%): 1.2 ± 0.4%; % inhibition (5α-reductase [4]; [c] 0.04%): 1.0 ± 0.9%; % inhibition (5α-reductase [4]; [c] 0.1%): 0.9 ± 0.7%; inhibition vs. irradiated control (HF) ([5]; 0.01%): 19%; HF % change (IL-6 vs. tests without UV exposure) ([5]; [c] 0.01%): +356 ± 18%; HF % change (IL-6 vs. tests without UV exposure) [5, 8]: +356%; HF % change (IL-6 vs. tests without UV exposure) ([5]; [c] 0.04%): +155 ± 9%; HF % change (IL-6 vs. tests without UV exposure) ([5]; [c] 0.1%): +87 ± 7%; inhibition vs. irradiated control (HK) ([6]; 0.01%): 14%; HK % change (IL-6 vs. tests without UV exposure) ([6]; [c] 0.01%): +388 ± 10%; HK % change (IL-6 vs. tests without UV exposure) [6, 8]: +388%; HK % change (IL-6 vs. tests without UV exposure) ([6]; [c] 0.04%): +201 ± 10%; HK % change (IL-6 vs. tests without UV exposure) ([6]; [c] 0.1%): +91 ± 14%; % inhibition (quantity of DNA, number of cells) ([7]; [c] 0.04%): 22.3 ± 1.9%; % inhibition (quantity of DNA, number of cells) ([7]; [c] 0.1%): 29.9 ± 1.7%; antimicrobial activity (Staphylococcus hominis; S. hominis): selective antimicrobial activity; antimicrobial activity [2]: selective antimicrobial activity

Question: Which “% inhibition” value (5α-reductase [3]; [c] 0.01%) does the source give for CC1(C)CC[C@]2(C(=O)O)CC[C@]3(C)C(=CC[C@@H]4[C@@]5(C)CC[C@H](O)C(C)(C)[C@@H]5CC[C@]43C)[C@@H]2C1 [Oleanolic acid, oleanolic acid] here?
Answer: 16.7 ± 1.1%

Question: And the “% inhibition” value (5α-reductase [3]; [c] 0.03%)?
Answer: 31.7 ± 2.9%

Question: And the “% inhibition” value (5α-reductase [3]; [c] 0.1%)?
Answer: 56.3 ± 2.6%

Question: And the “% inhibition” value (5α-reductase [3]; [c] 0.1%, listed as oleanolic acid)?
Answer: 56%

Question: What about the “% inhibition” value (5α-reductase [4]; [c] 0.01%) of the same compound?
Answer: 10.9 ± 1.4%

Question: What about the “% inhibition” value (5α-reductase [4]; [c] 0.03%) of the same compound?
Answer: 25.6 ± 2.0%

Question: What about the “% inhibition” value (5α-reductase [4]; [c] 0.1%) of the same compound?
Answer: 48%

Question: And the “% inhibition” value (5α-reductase [4]; [c] 0.1%, listed as Oleanolic acid (obtained from olive tree leaves))?
Answer: 47.7 ± 3.8%

Question: What about the “activity in the test, HF” value [5] of the same compound?
Answer: devoid of activity

Question: And the “HF % change (IL-6 vs. tests without UV exposure)” value ([5]; [c] 0.01%)?
Answer: +455 ± 14%

Question: What about the “HF % change (IL-6 vs. tests without UV exposure)” value ([5]; [c] 0.03%) of the same compound?
Answer: +437 ± 12%

Question: What about the “HF % change (IL-6 vs. tests without UV exposure)” value ([5]; [c] 0.1%) of the same compound?
Answer: +441 ± 18%

Question: What about the “activity in the test, HK” value [6] of the same compound?
Answer: devoid of activity

Question: What about the “HK % change (IL-6 vs. tests without UV exposure)” value ([6]; [c] 0.01%) of the same compound?
Answer: +461 ± 16%

Question: What about the “HK % change (IL-6 vs. tests without UV exposure)” value ([6]; [c] 0.03%) of the same compound?
Answer: +444 ± 14%

Question: What about the “HK % change (IL-6 vs. tests without UV exposure)” value ([6]; [c] 0.1%) of the same compound?
Answer: +450 ± 14%

Question: What about the “activity in the test” value [7] of the same compound?
Answer: devoid of activity

Question: What about the “% inhibition (quantity of DNA, number of cells)” value ([7]; [c] 0.01%) of the same compound?
Answer: 0.9 ± 1.0%

Question: And the “% inhibition (quantity of DNA, number of cells)” value ([7]; [c] 0.03%)?
Answer: 1.1 ± 1.6%

Question: What about the “% inhibition (quantity of DNA, number of cells)” value ([7]; [c] 0.1%) of the same compound?
Answer: 0.7 ± 0.7%

Question: And the “antimicrobial activity” value (P. acnes; P. acnes)?
Answer: selective antimicrobial activity

Question: And the “antimicrobial activity” value [2]?
Answer: selective antimicrobial activity
